In PubChem BioAssay (NCI):
Values joined by “and” are separate entries in the source; they are usually repeats but may differ in a detail not shown here. Equal values may be shown once.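 Cells were grown in 96-well plates and exposed to each compound for 48 hours at five concentrations; endpoints were interpolated linearly between bracketing concentrations, or set to the highest concentration if not reached. Here, GI50 denotes the concentration required for 50% inhibition of growth. TGI: total growth inhibition.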

Test system: HCC-2998 colon
Experiment: NCI tumour cell line growth inhibition, 48 h

SMILES	GI50	TGI
C#CCOc1cccc(Nc2ncnc3c(NC(=O)C=C)cccc23)c1	17.7 µM	33.9 µM
CO[C@H]1Nc2c(ccc(C)c2O)C(=O)N2C=C(/C=C/C(N)=O)C[C@@H]12		0.132 µM
CCNC(=O)/C(=C/c1ccc(OC)cc1)c1cc(OC)c(OC)c(OC)c1		> 39.3 µM
CCCc1cc(=O)n2c(C(=O)Nc3ccc(Cl)cc3C)c(C(=O)Nc3ccc(F)cc3)sc2n1	96.6 µM	> 150 µM
Cc1ccc(OCCOCCOCCOCCOc2ccc(C)n(O)c2=S)c(=S)n1O	0.25 µM	> 100 µM
N#CC(=Nc1ccccc1N(C(=O)c1ccccc1)C(=O)c1ccccc1)c1ccccc1		> 100 µM
COC(=O)C(=O)C(C(C)=O)C(=O)NCc1ccc(OC)c(OC)c1 (configuration not stated)		> 100 µM
COc1ccc(-c2ccc3c(N4CCOC[C@@H]4C)nc(N4CCOC[C@@H]4C)nc3n2)cc1CO	0.0094 µM and 0.0254 µM	3.21 µM
CCOC(=O)NC(=O)c1cn(C(CC)COC(=O)NCCCCCCNC(=O)OCC(CC)n2cc(C(=O)NC(=O)OCC)c(=O)[nH]c2=O)c(=O)[nH]c1=O (configuration not stated)		> 100 µM
N[C@H](CCC(=O)N[C@@H](Cc1c[nH]c2ccccc12)C(=O)O)C(=O)O	> 100 µM	> 100 µM
COc1ccc(-c2nc(-c3cc(OC)cc(OC)c3)[nH]c2-c2ccc(OC)cc2)cc1	5.96 µM	> 100 µM
Nc1ccccc1O.O.O=C(O)C1[O][Sb][O]C1C(=O)O (configuration not stated)	17.9 µM	47.7 µM
O=C(CC(=O)C1CCOC1=O)C(=O)Nc1cccc(Cl)c1 (configuration not stated)		> 100 µM
OC(c1cc(-c2ccc(C(F)(F)F)cc2)nc(C(F)(F)F)c1)C1CCCCN1 (configuration not stated)	0.53 µM	1.76 µM and 3.07 µM
CC(C)CC(C/C=C1/CC(CO)(COC(=O)C(C)(C)C)OC1=O)CC(C)C (configuration not stated)		5.37 µM and 6.13 µM
Cc1cccc(C2=C/C(=C(\SS/C(C(=O)c3ccc(OCC(=O)O)c(Cl)c3Cl)=C3\C=C(c4cccc(C)c4)SS3)C(=O)c3ccc(OCC(=O)O)c(Cl)c3Cl)SS2)c1		> 100 µM

Test system: K-562 leukemia
Experiment: NCI tumour cell line growth inhibition, 48 h

SMILES	GI50	TGI
O=C1CCCN1c1ccccc1I(=O)=O	> 100 µM	> 100 µM
O=C(NCc1ccc(Cn2c(=O)sn(-c3ccccc3)c2=O)cc1)OCc1ccc2cccc(O)c2n1	0.403 µM	> 100 µM
COC(c1ccc(C(C)(C)C)cc1)(c1ccc(C(C)(C)C)cc1)c1ccc(C(C)(C)C)cc1		> 100 µM
Nc1ccccc1C(=O)/C=C/c1c(O)ccc2ccccc12		> 100 µM
CC(C)c1[nH]nc2c1N=C(c1ccccc1Cl)c1cc([N+](=O)[O-])ccc1N2	1.98 µM	> 25 µM
Nc1cc2c(cc1Br)[nH]c(=O)c1ccccc12	5.78 µM	> 100 µM
COc1ccc(-c2nccn2-c2ccc(OC)cc2)cc1	6.43 µM	61.4 µM
O=C(/C=C/c1ccccc1)c1ccccc1		> 7.51 µM
CC(C)[C@H](O)C(=O)N[C@@H](C)C(=O)N[C@@H]1C(=O)N(C)CCc2ccccc21	> 100 µM	> 100 µM
CC(C)=C1CCC(CN(C)C)C1=O (configuration not stated)		31 µM
COc1ccc(-c2cnnn2-c2nonc2-n2cccc2)cc1	0.039 µM	> 100 µM
COc1cccc(/C=N/[N-]C(=O)c2ccncc2)c1[O-].COc1cccc(/C=N/[N-]C(=O)c2ccncc2)c1[O-].[O]=[U](=[O])([OH2+])[OH2+]	5.29 µM	> 100 µM
ClC(Cl)=C1C(=C(Cl)Cl)C(Cl)(Cl)C1(Cl)Cl	0.532 µM	5.62 µM
C#CCOc1cccc(Nc2ncnc3c(NC(=O)C=C)cccc23)c1	7.87 µM	> 100 µM
CO[C@H]1Nc2c(ccc(C)c2O)C(=O)N2C=C(/C=C/C(N)=O)C[C@@H]12		27.8 µM
CCNC(=O)/C(=C/c1ccc(OC)cc1)c1cc(OC)c(OC)c(OC)c1		> 100 µM
CCCc1cc(=O)n2c(C(=O)Nc3ccc(Cl)cc3C)c(C(=O)Nc3ccc(F)cc3)sc2n1	1.08 µM	20.3 µM
Cc1ccc(OCCOCCOCCOCCOc2ccc(C)n(O)c2=S)c(=S)n1O	< 0.01 µM	> 100 µM
N#CC(=Nc1ccccc1N(C(=O)c1ccccc1)C(=O)c1ccccc1)c1ccccc1		> 60.9 µM
COC(=O)C(=O)C(C(C)=O)C(=O)NCc1ccc(OC)c(OC)c1 (configuration not stated)		> 100 µM
COc1ccc(-c2ccc3c(N4CCOC[C@@H]4C)nc(N4CCOC[C@@H]4C)nc3n2)cc1CO	0.012 µM and 0.0551 µM	> 100 µM
CCOC(=O)NC(=O)c1cn(C(CC)COC(=O)NCCCCCCNC(=O)OCC(CC)n2cc(C(=O)NC(=O)OCC)c(=O)[nH]c2=O)c(=O)[nH]c1=O (configuration not stated)		> 100 µM
N[C@H](CCC(=O)N[C@@H](Cc1c[nH]c2ccccc12)C(=O)O)C(=O)O	> 100 µM	> 100 µM
COc1ccc(-c2nc(-c3cc(OC)cc(OC)c3)[nH]c2-c2ccc(OC)cc2)cc1	5.02 µM	> 100 µM
Nc1ccccc1O.O.O=C(O)C1[O][Sb][O]C1C(=O)O (configuration not stated)	3.77 µM	> 36.1 µM
O=C(CC(=O)C1CCOC1=O)C(=O)Nc1cccc(Cl)c1 (configuration not stated)		> 100 µM
OC(c1cc(-c2ccc(C(F)(F)F)cc2)nc(C(F)(F)F)c1)C1CCCCN1 (configuration not stated)	1.2 µM and 1.91 µM	2.94 µM and 4.06 µM
CC(C)CC(C/C=C1/CC(CO)(COC(=O)C(C)(C)C)OC1=O)CC(C)C (configuration not stated)		27.4 µM and > 37.5 µM
Cc1cccc(C2=C/C(=C(\SS/C(C(=O)c3ccc(OCC(=O)O)c(Cl)c3Cl)=C3\C=C(c4cccc(C)c4)SS3)C(=O)c3ccc(OCC(=O)O)c(Cl)c3Cl)SS2)c1		36.2 µM

Test system: OVCAR-5 ovarian
Experiment: NCI tumour cell line growth inhibition, 48 h

SMILES	GI50	TGI
O=C1CCCN1c1ccccc1I(=O)=O	> 100 µM	> 100 µM
O=C(NCc1ccc(Cn2c(=O)sn(-c3ccccc3)c2=O)cc1)OCc1ccc2cccc(O)c2n1	1.54 µM	3.12 µM
COC(c1ccc(C(C)(C)C)cc1)(c1ccc(C(C)(C)C)cc1)c1ccc(C(C)(C)C)cc1		> 100 µM
Nc1ccccc1C(=O)/C=C/c1c(O)ccc2ccccc12		> 100 µM
CC(C)c1[nH]nc2c1N=C(c1ccccc1Cl)c1cc([N+](=O)[O-])ccc1N2	12.2 µM	> 25 µM
Nc1cc2c(cc1Br)[nH]c(=O)c1ccccc12	6.91 µM	41.1 µM
COc1ccc(-c2nccn2-c2ccc(OC)cc2)cc1	25 µM	> 100 µM
O=C(/C=C/c1ccccc1)c1ccccc1		> 10 µM
CC(C)[C@H](O)C(=O)N[C@@H](C)C(=O)N[C@@H]1C(=O)N(C)CCc2ccccc21	> 100 µM	> 100 µM
CC(C)=C1CCC(CN(C)C)C1=O (configuration not stated)		> 100 µM
COc1ccc(-c2cnnn2-c2nonc2-n2cccc2)cc1	1.45 µM	> 100 µM
COc1cccc(/C=N/[N-]C(=O)c2ccncc2)c1[O-].COc1cccc(/C=N/[N-]C(=O)c2ccncc2)c1[O-].[O]=[U](=[O])([OH2+])[OH2+]	6.79 µM	> 100 µM
ClC(Cl)=C1C(=C(Cl)Cl)C(Cl)(Cl)C1(Cl)Cl		6.25 µM
C#CCOc1cccc(Nc2ncnc3c(NC(=O)C=C)cccc23)c1	27.6 µM	> 100 µM
CO[C@H]1Nc2c(ccc(C)c2O)C(=O)N2C=C(/C=C/C(N)=O)C[C@@H]12		5.45 µM
CCNC(=O)/C(=C/c1ccc(OC)cc1)c1cc(OC)c(OC)c(OC)c1		> 100 µM
CCCc1cc(=O)n2c(C(=O)Nc3ccc(Cl)cc3C)c(C(=O)Nc3ccc(F)cc3)sc2n1	53.9 µM	> 150 µM
Cc1ccc(OCCOCCOCCOCCOc2ccc(C)n(O)c2=S)c(=S)n1O	0.408 µM	> 100 µM
N#CC(=Nc1ccccc1N(C(=O)c1ccccc1)C(=O)c1ccccc1)c1ccccc1		> 100 µM
COC(=O)C(=O)C(C(C)=O)C(=O)NCc1ccc(OC)c(OC)c1 (configuration not stated)		> 100 µM
COc1ccc(-c2ccc3c(N4CCOC[C@@H]4C)nc(N4CCOC[C@@H]4C)nc3n2)cc1CO	0.00607 µM and 0.0331 µM	60.3 µM
N[C@H](CCC(=O)N[C@@H](Cc1c[nH]c2ccccc12)C(=O)O)C(=O)O	> 100 µM	> 100 µM
COc1ccc(-c2nc(-c3cc(OC)cc(OC)c3)[nH]c2-c2ccc(OC)cc2)cc1	> 100 µM	> 100 µM
Nc1ccccc1O.O.O=C(O)C1[O][Sb][O]C1C(=O)O (configuration not stated)	18.4 µM	38.5 µM
O=C(CC(=O)C1CCOC1=O)C(=O)Nc1cccc(Cl)c1 (configuration not stated)		> 100 µM
OC(c1cc(-c2ccc(C(F)(F)F)cc2)nc(C(F)(F)F)c1)C1CCCCN1 (configuration not stated)	1.53 µM and 2.71 µM	2.87 µM and 7.52 µM
